Test system: HEK293T cells carrying the ATF4 luciferase reporter
Assay: ATF4-Luc assay (in vitro model of vanishing white matter disease)
Assay type: cell-based
Conditions: Homo sapiens, HEK-293T, 1 μg/mL tunicamycin, 7 hours
Protocol: In order to test exemplary compounds of the invention in a cellular context, a stable VWMD cell line was first constructed. The ATF4 reporter was prepared by fusing the human full-length ATF4 5′-UTR (NCBI Accession No. BCO22088.2) in front of the firefly luciferase (FLuc) coding sequence lacking the initiator methionine as described in Sidrauski et al (eLife 2013). The construct was used to produce recombinant retroviruses using standard methods and the resulting viral supernatant was used to transduce HEK293T cells, which were then subsequently selected with puromycin to generate a stable cell line.
HEK293T cells carrying the ATF4 luciferase reporter were plated on polylysine coated 384-well plates (Greiner Bio-one) at 30,000 cells per well. Cells were treated the next day with 1 μg/mL tunicamycin and 200 nM of a compound of Formula (I) for 7 hours. Luminescence was measured using One Glo (Promega) as specified by the manufacturer. Cells were maintained in DMEM with L-glutamine supplemented with 10% heat-inactivated FBS (Gibco) and Antibiotic-Antimycotic solution (Gibco).
Table 2 below summarizes the EC50 data obtained using the ATF4-Luc assay for exemplary compounds of the invention.

| Compound | EC50 [nM] |
| --- | --- |
| O=C(COc1ccc(Cl)c(F)c1)NC12CCC(C(=O)N(CCO)Cc3ccc(Cl)c(F)c3)(CC1)CC2 [Compound 344, 4-[2-(4-chloro-3-fluorophenoxy)acetamido]-N-[(4-chloro-3-fluorophenyl)methyl]-N-(2-hydroxyethyl)bicyclo[2.2.2]octane-1-carboxamide] | 1000 to 2000 |
| O=C(COc1ccc(Cl)c(F)c1)NC12CCC(C(=O)NCc3ccc(C(F)(F)F)cn3)(CC1)C[C@@H]2O (single isomer, unassigned) [Compound 272] | < 250 |
| O=C(COc1ccc(Cl)c(Cl)c1)NC12CCC(C(=O)Nc3ccc(OC(F)(F)F)cn3)(C1)C2 [Compound 292, 4-[2-(3,4-dichlorophenoxy)acetamido]-N-[5-(trifluoromethoxy)pyridin-2-yl]bicyclo[2.1.1]hexane-1-carboxamide] | < 250 |
| O=C(COc1ccc(Cl)c(F)c1)NC12CCC(C(=O)NCc3nc4cc(F)c(F)cc4[nH]3)(CC1)CC2 [Compound 324, 4-[2-(4-chloro-3-fluorophenoxy)acetamido]-N-[(5,6-difluoro-1H-benzimidazol-2-yl)methyl]bicyclo[2.2.2]octane-1-carboxamide] | < 250 |
| O=C(COc1ccc(Cl)c(F)c1)NC12CCC(C(=O)NCc3nc4ccc(Cl)cc4[nH]3)(CC1)CC2 [Compound 325, N-[(6-chloro-1H-benzimidazol-2-yl)methyl]-4-[2-(4-chloro-3-fluorophenoxy)acetamido]bicyclo[2.2.2]octane-1-carboxamide] | < 250 |
| Cc1cnc(CNC(=O)C23CCC(NC(=O)COc4ccc(Cl)c(F)c4)(CC2)CC3)cn1 [Compound 258, 4-[2-(4-chloro-3-fluorophenoxy)acetamido]-N-[(5-methylpyrazin-2-yl)methyl]bicyclo[2.2.2]octane-1-carboxamide] | 500 to 1000 |
| O=C(COc1ccc(Cl)c(F)c1)NC12CCC(C(=O)NCc3ccc(Cl)cn3)(CC1)CC2 [Compound 257, 4-[2-(4-chloro-3-fluorophenoxy)acetamido]-N-[(5-chloropyridin-2-yl)methyl]bicyclo[2.2.2]octane-1-carboxamide] | < 250 |
| O=C(COc1ccc(Cl)c(F)c1)NC12CCC(C(=O)NCc3ccccn3)(CC1)CC2 [Compound 259, 4-[2-(4-chloro-3-fluorophenoxy)acetamido]-N-[(pyridin-2-yl)methyl]bicyclo[2.2.2]octane-1-carboxamide] | 500 to 1000 |
| O=C(COc1ccc(Cl)c(F)c1)NC12CCC(C(=O)NCc3ccc(C(F)(F)F)cc3)(CC1)C[C@@H]2O (single isomer, unassigned) [Compound 270] | < 250 |
| O=C(NC12CC(C(=O)Nc3ccc(OC(F)(F)F)cn3)(C1)C2)c1ccc(OC(F)(F)F)cn1 [Compound 315, 5-(trifluoromethoxy)-N-(3-{[5-(trifluoromethoxy)pyridin-2-yl]carbamoyl}bicyclo[1.1.1]pentan-1-yl)pyridine-2-carboxamide] | 500 to 1000 |
| O=C(COc1ccc(Cl)c(F)c1)NC12CC(C(=O)NCc3nc4cc(F)c(F)cc4[nH]3)(C1)C2 [Compound 331, 3-[2-(4-chloro-3-fluorophenoxy)acetamido]-N-[(5,6-difluoro-1H-benzimidazol-2-yl)methyl]bicyclo[1.1.1]pentane-1-carboxamide] | < 250 |
| O=C(COc1ccc(Cl)c(F)c1)NC12CCC(C(=O)NCc3ccc(C(F)(F)F)cn3)(CC1)C(=O)N2CCO [Compound 329, 1-[2-(4-chloro-3-fluorophenoxy)acetamido]-2-(2-hydroxyethyl)-3-oxo-N-{[5-(trifluoromethyl)pyridin-2-yl]methyl}-2-azabicyclo[2.2.2]octane-4-carboxamide] | < 250 |
| O=C(COc1ccc(Cl)c(F)c1)NC12CCC(C(=O)NCc3ccc(C(F)(F)F)cn3)(CC1)OC2 [Compound 335, 4-[2-(4-chloro-3-fluorophenoxy)acetamido]-N-{[5-(trifluoromethyl)pyridin-2-yl]methyl}-2-oxabicyclo[2.2.2]octane-1-carboxamide] | < 250 |
| COc1ccc(CNC(=O)C23CCC(NC(=O)COc4ccc(Cl)c(F)c4)(CC2)C(O)C3)nn1 (stereo not shown) [Compound 321, 4-[2-(4-chloro-3-fluorophenoxy)acetamido]-3-hydroxy-N-[(6-methoxypyridazin-3-yl)methyl]bicyclo[2.2.2]octane-1-carboxamide] | > 2000 |
| O=C(COc1ccc(Cl)c(F)c1)NC12CCC(C(=O)NCc3ccc(C(F)(F)F)cn3)(CC1)C(=O)N2 [Compound 333, 1-[2-(4-chloro-3-fluorophenoxy)acetamido]-3-oxo-N-{[5-(trifluoromethyl)pyridin-2-yl]methyl}-2-azabicyclo[2.2.2]octane-4-carboxamide] | < 250 |
| O=C(COc1ccc(Cl)c(F)c1)NC12CCC(C(=O)NCC(=O)c3ccc(Cl)cc3)(CC1)[C@H](O)C2 [Compound 276, (2R)-4-[2-(4-chloro-3-fluorophenoxy)acetamido]-N-[2-(4-chlorophenyl)-2-oxoethyl]-2-hydroxybicyclo[2.2.2]octane-1-carboxamide] | < 250 |

| Compound | EC50 [nM] |
| --- | --- |
| O=C(COc1ccc(Cl)c(F)c1)NC12CCC(C(=O)NCc3ccc(C(F)(F)F)cc3)(CC1)CC2O (stereo not shown) [Compound 274, 4-[2-(4-chloro-3-fluorophenoxy)acetamido]-3-hydroxy-N-{[4-(trifluoromethyl)phenyl]methyl}bicyclo[2.2.2]octane-1-carboxamide] | < 250 |
| O=C(COc1ccc(Cl)c(F)c1)NC12CCC(C(=O)NCc3ccc(C(F)(F)F)cn3)(CC1)C[C@H]2O (single isomer, unassigned) [Compound 271] | < 250 |
| COc1ccc(NC(=O)C23CC(NC(=O)COc4ccc(Cl)c(F)c4)(C2)C3)nc1 [Compound 303, 3-[2-(4-chloro-3-fluorophenoxy)acetamido]-N-(5-methoxypyridin-2-yl)bicyclo[1.1.1]pentane-1-carboxamide] | 250 to 500 |
| Cc1ccc(NC(=O)C23CC(NC(=O)COc4ccc(Cl)c(F)c4)(C2)C3)nc1 [Compound 299, 3-[2-(4-chloro-3-fluorophenoxy)acetamido]-N-(5-methylpyridin-2-yl)bicyclo[1.1.1]pentane-1-carboxamide] | < 250 |
| O=C(COc1ccc(Cl)c(F)c1)NC12CCC(C(=O)Nc3ccc(Cl)cc3)(C1)C2 [Compound 286, 4-[2-(4-chloro-3-fluorophenoxy)acetamido]-N-(4-chlorophenyl)bicyclo[2.1.1]hexane-1-carboxamide] | > 2000 |
| O=C(COc1ccc(Cl)c(Cl)c1)NC12CCC(C(=O)NCc3ccc(C(F)(F)F)cc3)(CC1)[C@H](O)C2 (single isomer, unassigned) [Compound 263] | < 250 |
| O=C(COc1ccc2c(c1)OC(F)(F)O2)NC12CCC(C(=O)Nc3ccc(OC(F)(F)F)cn3)(C1)C2 [Compound 293, 4-{2-[(2,2-difluoro-2H-1,3-benzodioxol-5-yl)oxy]acetamido}-N-[5-(trifluoromethoxy)pyridin-2-yl]bicyclo[2.1.1]hexane-1-carboxamide] | 250 to 500 |
| O=C(COc1ccc(Cl)c(F)c1)NC12CC(C(=O)NCCCc3ccccn3)(C1)C2 [Compound 254, 3-[2-(4-chloro-3-fluorophenoxy)acetamido]-N-[3-(pyridin-2-yl)propyl]bicyclo[1.1.1]pentane-1-carboxamide] | 1000 to 2000 |
| O=C(COc1ccc(Cl)c(F)c1)NC12CC(C(=O)NC(CO)c3ccc(Cl)cc3)(C1)C2 (stereo not shown) [Compound 318, 3-[2-(4-chloro-3-fluorophenoxy)acetamido]-N-[1-(4-chlorophenyl)-2-hydroxyethyl]bicyclo[1.1.1]pentane-1-carboxamide] | > 2000 |
| O=C(COc1ccc(Cl)c(F)c1)NC12CC(C(=O)Nc3ccncc3)(C1)C2 [Compound 301, 3-[2-(4-chloro-3-fluorophenoxy)acetamido]-N-(pyridin-4-yl)bicyclo[1.1.1]pentane-1-carboxamide] | < 250 |
| O=C(COc1ccc(Cl)c(F)c1)NC12CCC(C(=O)NCc3cc(C(F)(F)F)ccn3)(CC1)CC2 [Compound 332, 4-[2-(4-chloro-3-fluorophenoxy)acetamido]-N-{[4-(trifluoromethyl)pyridin-2-yl]methyl}bicyclo[2.2.2]octane-1-carboxamide] | < 250 |
| CC(O)(CNC(=O)C12CC(NC(=O)COc3ccc(Cl)c(F)c3)(C1)C2)c1ccc(Cl)cc1 (stereo not shown) [Compound 317, 3-[2-(4-chloro-3-fluorophenoxy)acetamido]-N-[2-(4-chlorophenyl)-2-hydroxypropyl]bicyclo[1.1.1]pentane-1-carboxamide] | 1000 to 2000 |
| O=C(COc1ccc(Cl)c(F)c1)NC12CCC(C(=O)Nc3ccc(OC(F)F)nc3)(C1)C2 [Compound 268, 4-[2-(4-chloro-3-fluorophenoxy)acetamido]-N-[6-(difluoromethoxy)pyridin-3-yl]bicyclo[2.1.1]hexane-1-carboxamide] | 250 to 500 |
| O=C(COc1ccc(Cl)c(F)c1)NC12CC(C(=O)NCc3cnccn3)(C1)C2 [Compound 164, 3-[2-(4-chloro-3-fluorophenoxy)acetamido]-N-[(pyrazin-2-yl)methyl]bicyclo[1.1.1]pentane-1-carboxamide] | > 2000 |
| O=C(CNC(=O)C12CCC(NC(=O)COc3ccc(Cl)c(F)c3)(CC1)C[C@@H]2O)Cc1ccccc1 [Compound 277, (2S)-4-[2-(4-chloro-3-fluorophenoxy)acetamido]-2-hydroxy-N-(2-oxo-3-phenylpropyl)bicyclo[2.2.2]octane-1-carboxamide] | < 250 |

Reference: patent publication US20240173307A1, “MODULATORS OF THE INTEGRATED STRESS PATHWAY” (Calico Life Sciences LLC, priority 2017, published 2024)
